Measured values published in patent US11180494B2, “Substituted amino acids as integrin inhibitors” (Pliant Therapeutics, Inc., priority 2018, dated 2021).
pIC50: −log10 of the molar value.

What follows are compounds tested against human integrin αvβ6 (Homo sapiens (Human), UniProt P06756+P18564) (assay: Proximity-based integrin receptor binding assay (ALPHASCREEN) for inhibitor potency). Details: inhibition of binding of TGF-b1 LAP to human integrin αvβ6; values given in ranges.
Sequence of human integrin αvβ6 (P06756 31-992): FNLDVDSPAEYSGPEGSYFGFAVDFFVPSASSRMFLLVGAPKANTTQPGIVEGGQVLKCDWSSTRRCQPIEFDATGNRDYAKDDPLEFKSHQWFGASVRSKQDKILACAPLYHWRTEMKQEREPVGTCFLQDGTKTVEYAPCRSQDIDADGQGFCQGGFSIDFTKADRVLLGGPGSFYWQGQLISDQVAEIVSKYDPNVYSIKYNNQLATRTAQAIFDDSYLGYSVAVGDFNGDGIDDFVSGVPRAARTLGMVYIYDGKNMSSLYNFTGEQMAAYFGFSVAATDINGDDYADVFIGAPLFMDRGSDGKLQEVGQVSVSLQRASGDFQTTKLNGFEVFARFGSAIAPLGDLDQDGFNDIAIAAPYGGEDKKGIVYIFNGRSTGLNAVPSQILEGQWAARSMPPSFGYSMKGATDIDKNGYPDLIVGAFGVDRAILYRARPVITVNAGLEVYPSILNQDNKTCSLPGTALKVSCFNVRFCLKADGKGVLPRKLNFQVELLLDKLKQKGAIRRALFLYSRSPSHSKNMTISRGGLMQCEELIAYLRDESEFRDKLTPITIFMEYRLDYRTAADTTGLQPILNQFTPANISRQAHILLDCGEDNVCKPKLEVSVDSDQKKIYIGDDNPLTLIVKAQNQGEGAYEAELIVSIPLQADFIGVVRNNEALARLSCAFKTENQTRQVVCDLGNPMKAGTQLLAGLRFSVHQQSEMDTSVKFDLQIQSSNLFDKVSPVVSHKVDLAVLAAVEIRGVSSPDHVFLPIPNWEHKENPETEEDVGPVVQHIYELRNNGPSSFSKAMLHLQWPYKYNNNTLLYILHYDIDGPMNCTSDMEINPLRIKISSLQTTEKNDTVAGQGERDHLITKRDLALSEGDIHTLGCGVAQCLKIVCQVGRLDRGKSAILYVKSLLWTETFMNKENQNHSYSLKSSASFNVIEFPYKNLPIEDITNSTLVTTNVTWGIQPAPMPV
Sequence of human integrin αvβ6 (P18564 22-707): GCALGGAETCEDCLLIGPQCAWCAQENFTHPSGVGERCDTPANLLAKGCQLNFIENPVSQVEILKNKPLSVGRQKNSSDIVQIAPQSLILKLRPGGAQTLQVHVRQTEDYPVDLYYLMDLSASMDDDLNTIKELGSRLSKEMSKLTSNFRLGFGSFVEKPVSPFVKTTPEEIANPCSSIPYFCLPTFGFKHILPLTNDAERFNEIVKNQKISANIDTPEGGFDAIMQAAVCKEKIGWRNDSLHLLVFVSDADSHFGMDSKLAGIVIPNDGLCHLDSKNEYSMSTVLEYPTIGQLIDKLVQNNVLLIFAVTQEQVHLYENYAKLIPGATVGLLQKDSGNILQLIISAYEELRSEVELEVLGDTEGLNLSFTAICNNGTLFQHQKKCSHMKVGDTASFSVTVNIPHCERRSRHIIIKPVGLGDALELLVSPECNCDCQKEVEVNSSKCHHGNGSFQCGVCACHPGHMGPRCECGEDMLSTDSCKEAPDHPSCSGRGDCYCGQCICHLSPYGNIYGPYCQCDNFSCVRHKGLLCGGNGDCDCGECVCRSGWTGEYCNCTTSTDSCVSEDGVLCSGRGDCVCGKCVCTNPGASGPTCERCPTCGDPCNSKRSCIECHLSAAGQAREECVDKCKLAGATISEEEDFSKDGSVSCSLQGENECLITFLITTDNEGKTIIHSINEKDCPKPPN
Summary of the method: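 AlphaScreen: integrin, compound, TGF-b1 LAP, biotinylated anti-LAP antibody and acceptor beads incubated 2 hours, then streptavidin donor beads 30 minutes, at room temperature in 50 mM Tris-HCl pH 7.5, 0.1% BSA, 1 mM CaCl2 and MgCl2. Excitation 680 nm, emission 520-620 nm; IC50 by four-parameter logistic fit.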
With `CC(C)(C)NC(=O)N[C@@H](CCO[C@H]1C[C@H](CCc2ccc3c(n2)NCCC3)C1)C(=O)O` [Compound 118, N-(tert-butylcarbamoyl)-O-(trans-3-(2-(5,6,7,8-tetrahydro-1,8-naphthyridin-2-yl)ethyl)cyclobutyl)homoserine] the pIC50 was over 7.30. Compound `CN(C(=O)N[C@@H](CCO[C@H]1C[C@H](CCc2ccc3c(n2)NCCC3)C1)C(=O)O)C(C)(C)C` [Compound 119, N-(tert-butyl(methyl)carbamoyl)-O-(trans-3-(2-(5,6,7,8-tetrahydro-1,8-naphthyridin-2-yl)ethyl)cyclobutyl)homoserine] has a pIC50 of 6.60 to 7.30. In the case of `CC(C)N(C)C(=O)N[C@@H](CCO[C@H]1C[C@H](CCc2ccc3c(n2)NCCC3)C1)C(=O)O` [Compound 120, N-(isopropyl(methyl)carbamoyl)-O-(trans-3-(2-(5,6,7,8-tetrahydro-1,8-naphthyridin-2-yl)ethyl)cyclobutyl)homoserine], the pIC50 was over 7.30. Work on `CC(C)N(C(=O)N[C@@H](CCO[C@H]1C[C@H](CCc2ccc3c(n2)NCCC3)C1)C(=O)O)C(C)C` [Compound 121, N-(diisopropylcarbamoyl)-O-(trans-3-(2-(5,6,7,8-tetrahydro-1,8-naphthyridin-2-yl)ethyl)cyclobutyl)homoserine] yielded a pIC50 of over 7.30. `CC(C)(C)CC(=O)N[C@@H](CCO[C@H]1C[C@H](CCc2ccc3c(n2)NCCC3)C1)C(=O)O` [Compound 122, N-(3,3-dimethylbutanoyl)-O-(trans-3-(2-(5,6,7,8-tetrahydro-1,8-naphthyridin-2-yl)ethyl)cyclobutyl)homoserine] gave a pIC50 of 6.60 to 7.30. `CC(C)CC(=O)N[C@@H](CCO[C@H]1C[C@H](CCc2ccc3c(n2)NCCC3)C1)C(=O)O` [Compound 123, N-(3-methylbutanoyl)-O-(trans-3-(2-(5,6,7,8-tetrahydro-1,8-naphthyridin-2-yl)ethyl)cyclobutyl)homoserine] was tested, and the pIC50 was over 7.30. In the case of `O=C(CC1CCC1)N[C@@H](CCO[C@H]1C[C@H](CCc2ccc3c(n2)NCCC3)C1)C(=O)O` [Compound 124, N-(2-cyclobutylacetyl)-O-(trans-3-(2-(5,6,7,8-tetrahydro-1,8-naphthyridin-2-yl)ethyl)cyclobutyl)homoserine], the pIC50 was over 7.30. Compound `CC1(CC(=O)N[C@@H](CCO[C@H]2C[C@H](CCc3ccc4c(n3)NCCC4)C2)C(=O)O)CC1` [Compound 125, N-(2-(1-methylcyclopropyl)acetyl)-O-(trans-3-(2-(5,6,7,8-tetrahydro-1,8-naphthyridin-2-yl)ethyl)cyclobutyl)homoserine] has a pIC50 of 6.60 to 7.30. `O=C(CC1CC1)N[C@@H](CCO[C@H]1C[C@H](CCc2ccc3c(n2)NCCC3)C1)C(=O)O` [Compound 126, N-(2-cyclopropylacetyl)-O-(trans-3-(2-(5,6,7,8-tetrahydro-1,8-naphthyridin-2-yl)ethyl)cyclobutyl)homoserine] gave a pIC50 of over 7.30. In the case of `CC(C)(C)OC(=O)N1CC(C)(OC(=O)N[C@@H](CCO[C@H]2C[C@H](CCc3ccc4c(n3)NCCC4)C2)C(=O)O)C1` [Compound 127, N-(((1-(tert-butoxycarbonyl)-3-methylazetidin-3-yl)oxy)carbonyl)-O-(trans-3-(2-(5,6,7,8-tetrahydro-1,8-naphthyridin-2-yl)ethyl)cyclobutyl)homoserine], the pIC50 was over 7.30. `CC1(OC(=O)N[C@@H](CCO[C@H]2C[C@H](CCc3ccc4c(n3)NCCC4)C2)C(=O)O)CN(S(C)(=O)=O)C1` [Compound 128, N-(((3-methyl-1-(methylsulfonyl)azetidin-3-yl)oxy)carbonyl)-O-(trans-3-(2-(5,6,7,8-tetrahydro-1,8-naphthyridin-2-yl)ethyl)cyclobutyl)homoserine] showed a pIC50 of 6.60 to 7.30. Compound `CC(=O)N1CC(C)(OC(=O)N[C@@H](CCO[C@H]2C[C@H](CCc3ccc4c(n3)NCCC4)C2)C(=O)O)C1` [Compound 129, N-(((1-acetyl-3-methylazetidin-3-yl)oxy)carbonyl)-O-(trans-3-(2-(5,6,7,8-tetrahydro-1,8-naphthyridin-2-yl)ethyl)cyclobutyl)homoserine] has a pIC50 of 6.60 to 7.30. Work on `CC1(OC(=O)N[C@@H](CCO[C@H]2C[C@H](CCc3ccc4c(n3)NCCC4)C2)C(=O)O)CNC1` [Compound 130, N-(((3-methylazetidin-3-yl)oxy)carbonyl)-O-(trans-3-(2-(5,6,7,8-tetrahydro-1,8-naphthyridin-2-yl)ethyl)cyclobutyl)homoserine] yielded a pIC50 of 6.60 to 7.30. For `O=C(N[C@@H](CCO[C@H]1C[C@H](CCc2ccc3c(n2)NCCC3)C1)C(=O)O)OC1CCCCC1` [Compound 131, N-((cyclohexyloxy)carbonyl)-O-(trans-3-(2-(5,6,7,8-tetrahydro-1,8-naphthyridin-2-yl)ethyl)cyclobutyl)homoserine], the pIC50 was over 7.30. With `CC(C)COC(=O)N[C@@H](CCO[C@H]1C[C@H](CCc2ccc3c(n2)NCCC3)C1)C(=O)O` [Compound 132, N-(isobutoxycarbonyl)-O-(trans-3-(2-(5,6,7,8-tetrahydro-1,8-naphthyridin-2-yl)ethyl)cyclobutyl)homoserine] the pIC50 was 6.60 to 7.30. In the case of `CC(C)(C)OC(=O)N1CC[C@H](OC(=O)N[C@@H](CCO[C@H]2C[C@H](CCc3ccc4c(n3)NCCC4)C2)C(=O)O)C1` [Compound 133, N—((((S)-1-(tert-butoxycarbonyl)pyrrolidin-3-yl)oxy)carbonyl)-O-(trans-3-(2-(5,6,7,8-tetrahydro-1,8-naphthyridin-2-yl)ethyl)cyclobutyl)homoserine], the pIC50 was over 7.30. Compound `O=C(N[C@@H](CCO[C@H]1C[C@H](CCc2ccc3c(n2)NCCC3)C1)C(=O)O)O[C@H]1CCNC1` [Compound 134, N—((((S)-pyrrolidin-3-yl)oxy)carbonyl)-O-(trans-3-(2-(5,6,7,8-tetrahydro-1,8-naphthyridin-2-yl)ethyl)cyclobutyl)homoserine] has a pIC50 of 6.60 to 7.30. In the case of `CS(=O)(=O)CCCC(=O)N[C@@H](CCO[C@H]1C[C@H](CCc2ccc3c(n2)NCCC3)C1)C(=O)O` [Compound 135, N-(4-(methylsulfonyl)butanoyl)-O-(trans-3-(2-(5,6,7,8-tetrahydro-1,8-naphthyridin-2-yl)ethyl)cyclobutyl)homoserine], the pIC50 was 6.60 to 7.30. `CS(=O)(=O)N1CC[C@H](OC(=O)N[C@@H](CCO[C@H]2C[C@H](CCc3ccc4c(n3)NCCC4)C2)C(=O)O)C1` [Compound 136, N—((((S)-1-(methylsulfonyl)pyrrolidin-3-yl)oxy)carbonyl)-O-(trans-3-(2-(5,6,7,8-tetrahydro-1,8-naphthyridin-2-yl)ethyl)cyclobutyl)homoserine] showed a pIC50 of over 7.30. `CC(=O)N1CC[C@H](OC(=O)N[C@@H](CCO[C@H]2C[C@H](CCc3ccc4c(n3)NCCC4)C2)C(=O)O)C1` [Compound 137, N—((((S)-1-acetylpyrrolidin-3-yl)oxy)carbonyl)-O-(trans-3-(2-(5,6,7,8-tetrahydro-1,8-naphthyridin-2-yl)ethyl)cyclobutyl)homoserine] showed a pIC50 of 6.00 to 6.60. Compound `CC(C)(C)OC(=O)N1CC[C@@H](OC(=O)N[C@@H](CCO[C@H]2C[C@H](CCc3ccc4c(n3)NCCC4)C2)C(=O)O)C1` [Compound 138, N—((((R)-1-(tert-butoxycarbonyl)pyrrolidin-3-yl)oxy)carbonyl)-O-(trans-3-(2-(5,6,7,8-tetrahydro-1,8-naphthyridin-2-yl)ethyl)cyclobutyl)homoserine] has a pIC50 of 6.60 to 7.30.
